This note sets out measurements from PubChem BioAssay (NCI).

Test systems include 786-0 renal; COLO 205 colon; NCI-H23 lung; KM12 colon; KM20L2 colon; HL-60(TB) leukemia; K-562 leukemia; MCF7 breast; T-47D breast.
Experiment in all cases: NCI anticancer screen, dose series, 48 h

Structures are written as SMILES.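 Tested at 5 concentrations; 48 h exposure; 96-well plates; endpoints linearly interpolated, else capped at highest concentration. GI50 is the concentration that inhibits growth by half. TGI: concentration producing complete growth inhibition.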

`NC1=NN(c2ccccc2)C(=O)C1/C(=N\NC(=O)c1cc2ccccc2cc1O)C(=O)Nc1cccc(C(F)(F)F)c1` (stereo not given): the TGI with 786-0 renal is more than 100 µM; with COLO 205 colon it was more than 100 µM; with NCI-H23 lung, more than 100 µM; with KM12 colon it was more than 100 µM; in the test on KM20L2 colon, more than 100 µM; in the test on HL-60(TB) leukemia it was 27.6 µM.
In the case of `CC(=O)[CH-]C(=O)c1ccccc1.CC(=O)[CH-]C(=O)c1ccccc1.CC[C@H](/C=C/C(C)[C@H]1CCC2[C@@H]3CC=C4C[C@@H]([O-])CC[C@]4(C)C3CC[C@@]21C)C(C)C.CC[O-].[Ti+4]` (stereo not given in full), the GI50 in the test on 786-0 renal, in the test on COLO 205 colon, in the test on NCI-H23 lung, in the test on KM12 colon, with KM20L2 colon and in the test on K-562 leukemia was more than 100 µM throughout. The GI50 with HL-60(TB) leukemia was more than 100 µM. For the same compound, the TGI with 786-0 renal, in the test on COLO 205 colon, in the test on NCI-H23 lung, in the test with KM12 colon, in the test with KM20L2 colon and in the test with K-562 leukemia was more than 100 µM in each case. The TGI in the test on HL-60(TB) leukemia is more than 100 µM.
On to `CC(=O)[CH-]C(=O)c1ccccc1.CC(=O)[CH-]C(=O)c1ccccc1.CC1(C)OCC(C2OC3OC(C)(C)OC3C2[O-])O1.CC1(C)OCC(C2OC3OC(C)(C)OC3C2[O-])O1.[Ti+4]` (stereo not given), for which the GI50 with 786-0 renal is 11.8 µM; in the test with NCI-H23 lung it was 18.2 µM; with KM12 colon it was 13.2 µM; with KM20L2 colon, 29.6 µM; with K-562 leukemia, 14.2 µM. The TGI in the test with 786-0 renal is 27.3 µM; in the test on NCI-H23 lung, 38.3 µM; in the test with KM12 colon it was 42.8 µM; in the test on KM20L2 colon, more than 100 µM; in the test on K-562 leukemia, 71.4 µM.
Consider `COc1cccc(NC(=O)C(C)(C)C)c1SSc1c(NC(=O)C(C)(C)C)cccc1OC`, for which the TGI in the test with 786-0 renal is 53.1 µM; in the test with COLO 205 colon it was 69.9 µM; with NCI-H23 lung it was more than 100 µM; with KM12 colon, more than 95.5 µM; in the test on KM20L2 colon, more than 100 µM; in the test on K-562 leukemia it was more than 82.5 µM. Moreover, the TGI in the test on HL-60(TB) leukemia is more than 73.1 µM.
Consider `COC(=O)C(CC(C)=O)CS(=O)(=O)CC(=O)C(=O)Nc1cccc([N+](=O)[O-])c1` (stereo not given), for which the TGI with 786-0 renal, with COLO 205 colon, with NCI-H23 lung, in the test on KM12 colon, with KM20L2 colon and with K-562 leukemia was more than 100 µM throughout.
Turning to `Cc1cc(=O)n2c3c(c4c(cc13)c(CO)cc(=O)n4C)OC2`, the TGI in the test on 786-0 renal was more than 100 µM; in the test on COLO 205 colon it was more than 100 µM; with NCI-H23 lung it was 48.1 µM; with KM12 colon, more than 100 µM; in the test with KM20L2 colon it was more than 100 µM; in the test on K-562 leukemia it was 97.7 µM.
With `Cc1ccc(NC(=O)CC/C(CC(=O)C(C)(C)C)=N/NC(=O)C[N+](C)(C)C)cc1C`, the TGI in the test with 786-0 renal was 52.9 µM; in the test with COLO 205 colon, more than 100 µM; in the test with NCI-H23 lung, more than 100 µM; with KM12 colon, more than 100 µM; in the test with KM20L2 colon it was more than 100 µM; in the test on K-562 leukemia it was more than 100 µM. Besides, the TGI in the test with HL-60(TB) leukemia is more than 100 µM.
Take `CSc1ccc(OCC2OC2O)cc1` (stereo not given): the TGI in the test with 786-0 renal was more than 100 µM; in the test on COLO 205 colon, 35.5 µM; in the test on NCI-H23 lung, more than 100 µM; with KM12 colon it was more than 95.9 µM; with KM20L2 colon, more than 100 µM; with K-562 leukemia it was more than 100 µM. Also, the TGI with HL-60(TB) leukemia was more than 83.5 µM.
In the case of `O=C(N/C(=C\c1ccc(/C=C(\NC(=O)c2ccccc2)c2nc3cc(Cl)ccc3[nH]2)cc1)c1nc2cc(Cl)ccc2[nH]1)c1ccccc1`, the TGI in the test on 786-0 renal is more than 100 µM; with COLO 205 colon, 51.3 µM; in the test with NCI-H23 lung it was more than 100 µM; in the test on KM12 colon, 88.7 µM; in the test on KM20L2 colon, 55.5 µM; in the test on K-562 leukemia, 71 µM.
With `COC(=O)NN1C(C)=C(C(=O)OC)C2(C#N)C(C(=O)OC)=C(C)N(NC(=O)OC)C12N` (stereo not given), the TGI in the test on 786-0 renal, in the test with COLO 205 colon, in the test with NCI-H23 lung, in the test with KM20L2 colon, in the test on K-562 leukemia and in the test on HL-60(TB) leukemia was more than 100 µM in each case.
`Cc1cc(Cl)ccc1NC(=O)CCCC(=O)C1CCC/C1=N\NC(=O)CC#N` (stereo not given): the TGI in the test with 786-0 renal, in the test on COLO 205 colon, in the test on NCI-H23 lung, in the test on KM12 colon, in the test on KM20L2 colon and with K-562 leukemia was more than 100 µM in each case. The compound further registered a TGI in the test on HL-60(TB) leukemia of more than 100 µM.
Turning to `CO[C@]12C=C/C(=C(/C(=O)OCc3cccnc3)C(=O)CCCCCCCC[C@@]3(OC)C=C/C(=C(/C(=O)OCc4cccnc4)C(=O)CCCCCCCC1)O3)O2`, the GI50 with 786-0 renal was 1.32 µM; in the test on MCF7 breast it was 0.504 µM; with COLO 205 colon it was 1.49 µM; in the test on NCI-H23 lung, 0.79 µM; in the test with T-47D breast it was 2.21 µM; in the test with KM12 colon, 1.03 µM. In addition, the figures for the GI50 in the test with K-562 leukemia and with HL-60(TB) leukemia were 1.46 µM and 1.37 µM, respectively. The TGI was 4.71 µM with 786-0 renal; 8.89 µM with MCF7 breast; 5.06 µM in the test with COLO 205 colon; 1.87 µM in the test with NCI-H23 lung; more than 50 µM with T-47D breast; 2.38 µM with KM12 colon. In addition, the TGI in the test with K-562 leukemia is more than 50 µM; in the test on HL-60(TB) leukemia it was 4.25 µM.
`Cc1ccc(/C=C/C(=N/N=C(N)N)c2ccccc2)cc1`: the GI50 with 786-0 renal was 2.41 µM; in the test on MCF7 breast, 0.465 µM; in the test with COLO 205 colon, 1.69 µM; in the test with NCI-H23 lung, 2.76 µM; in the test with T-47D breast, 4.3 µM; in the test with KM12 colon, 2.97 µM. Further, the results for the GI50 in the test with K-562 leukemia and with HL-60(TB) leukemia were 0.889 µM and 2.28 µM, respectively. Besides, the TGI with 786-0 renal is 6.53 µM; in the test with MCF7 breast it was 12.4 µM; in the test with COLO 205 colon, 3.74 µM; in the test with NCI-H23 lung, 11.8 µM; with T-47D breast it was 18.1 µM; with KM12 colon, 13.2 µM. Besides, the TGI with K-562 leukemia was determined as 10.4 µM; in the test with HL-60(TB) leukemia, 4.75 µM.
Consider `CCOC(=O)c1ccc2c(c1)nc(/C=C/c1ccc(Cl)cc1)n2-c1cc(C(C)(C)C)[nH]n1`, for which the GI50 in the test with 786-0 renal was 2.98 µM; with MCF7 breast, 2.71 µM; in the test on COLO 205 colon, 28.6 µM; with NCI-H23 lung it was 19.3 µM; with T-47D breast, 5.82 µM; in the test with KM12 colon, 12.9 µM. Moreover, the values for the GI50 in the test on K-562 leukemia and with HL-60(TB) leukemia were 4.41 µM and 39.9 µM, respectively. The TGI in the test with 786-0 renal was 9.29 µM; with MCF7 breast, 10.2 µM; in the test with COLO 205 colon, more than 100 µM; in the test with NCI-H23 lung, more than 100 µM; in the test with T-47D breast, 52.4 µM; in the test on KM12 colon, more than 100 µM. Besides, the TGI in the test on K-562 leukemia and in the test with HL-60(TB) leukemia was more than 100 µM in each case.
